{
  "source": "paper PMC10376691",
  "about": "“Inhibition of Acetylcholinesterase and Amyloid-β Aggregation by Piceatannol and Analogs: Assessing In Vitro and In Vivo Impact on a Murine Model of Scopolamine-Induced Memory Impairment” (Antioxidants, 2023)",
  "key": {"[1]": {"assay": "Neurite outgrowth and cell viability, two-color fluorescence assay kit", "format": "cell-based", "settings": "human, 3-day or 6-day treatment, green fluorescence, read-out: cell viability relative to the control", "procedure": "(§1) The SH-SY5Y cells were grown in DMEM/F-12 medium supplemented with 10% FBS at 37 °C under a humidified atmosphere and 5% CO2 [41]. […] The MTT was used to evaluate cell viability, and the absorbance at 570 nm was determined. The DMSO used instead of the sample solution was blank (recognized as 100%), and each treatment was expressed as relative cell viability (%). To study the stimulation of neurite outgrowth, the SH-SY5Y cells (5000 cells/well) were seeded on a 96-well plate pre-coated with poly-L-lysine and then cultured in the DMEM/F-12 medium containing 10% FBS overnight at 37 °C under a humidified atmosphere and 5% CO2. After being removed from the culture medium, each PIC, GNT, RHA, and isoRHA (at a final concentration of 10 μM in the 0.1%DMSO) or 0.1% DMSO (the control) was added to the DMEM/F-12 medium containing 10% FBS and refreshed every three days. On day 3 and day 6, each of the culture plates was photographed using an inverted microscope (ECLIPSE TS100, Nikon Instruments Inc., Tokyo, Japan). The culture medium was removed and washed with PBS, and the cultured cells in each well were fixed with 4% paraformaldehyde. To measure cell viability and quantify the neurite outgrowths of the treated SH-SY5Y in a 96-well plate, the neurite outgrowth staining kit (a two-color fluorescence assay kit) was used, following a previous report or the protocol in the manufacturer’s manual (publication number: MAN0007224), which included a cell membrane-stained fluorescent dye (orange-red fluorescence), a cell viability indicator (green fluorescence), and a reagent for background masking. […] The value for the control was recognized as 100%, and each treatment was expressed relative to the control."}, "SH-SY5Y cells": {"test_system": "SH-SY5Y cells", "assay": "Neurite outgrowth and cell viability, two-color fluorescence assay kit", "format": "cell-based", "settings": "10 μM, 3-day or 6-day treatment, orange-red fluorescence; vs control", "procedure": "as §1"}, "recombinant human AChE": {"target": "T1, recombinant human AChE (Homo sapiens, UniProt P22303)", "T1 construct": "purchased R&D Systems Inc. (Minneapolis, MN, USA)", "T1 sequence (P22303 32-614)": "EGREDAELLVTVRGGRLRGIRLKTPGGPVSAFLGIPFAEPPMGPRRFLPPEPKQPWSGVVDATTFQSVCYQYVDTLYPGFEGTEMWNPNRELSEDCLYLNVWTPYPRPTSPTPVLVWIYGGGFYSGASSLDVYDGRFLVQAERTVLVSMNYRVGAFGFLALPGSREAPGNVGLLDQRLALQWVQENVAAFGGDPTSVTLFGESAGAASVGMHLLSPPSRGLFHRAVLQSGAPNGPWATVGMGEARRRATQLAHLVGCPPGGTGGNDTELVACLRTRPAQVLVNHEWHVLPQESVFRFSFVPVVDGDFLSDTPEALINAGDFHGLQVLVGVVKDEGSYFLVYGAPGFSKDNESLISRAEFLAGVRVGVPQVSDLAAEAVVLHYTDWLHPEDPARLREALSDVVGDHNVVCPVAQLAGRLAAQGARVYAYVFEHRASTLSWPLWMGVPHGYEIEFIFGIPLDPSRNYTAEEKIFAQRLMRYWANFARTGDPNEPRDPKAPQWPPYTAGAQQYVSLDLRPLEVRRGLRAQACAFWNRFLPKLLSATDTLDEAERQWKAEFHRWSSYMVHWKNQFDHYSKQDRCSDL", "assay": "AChE inhibitory activity in vitro (acetylthiocholine/DTNB)", "format": "biochemical", "procedure": "Commercially synthesized acetylthiocholine iodide was hydrolyzed using AChE to release thiocholine, which was coupled with DTNB to generate the yellowish 5-thio-2-nitrobenzoate for in vitro AChE activity assays. For the AChE inhibitory activity assay, each analog was dissolved in the DMSO, and final concentrations of 100, 200, and 500 μM were used for comparisons. An equal volume of DMSO instead of the sample solution was used in the blank group and expressed as 100% AChE activity. […] AChE inhibition (%) was calculated as follows: [(A405blank − A405sample)/(A405blank)] × 100%."}, "[2]": {"settings": "rats, cited from earlier work"}, "[3]": {"target": "T2, mouse AChE activity in the brain extracts (Mus musculus, UniProt P21836)", "T2 construct": "The protein content of the whole brain extracts from the mice was quantified using the BCA protein kit; from tissue; host or cells: whole brain extract of scopolamine-induced ICR mice", "T2 sequence (P21836 32-614)": "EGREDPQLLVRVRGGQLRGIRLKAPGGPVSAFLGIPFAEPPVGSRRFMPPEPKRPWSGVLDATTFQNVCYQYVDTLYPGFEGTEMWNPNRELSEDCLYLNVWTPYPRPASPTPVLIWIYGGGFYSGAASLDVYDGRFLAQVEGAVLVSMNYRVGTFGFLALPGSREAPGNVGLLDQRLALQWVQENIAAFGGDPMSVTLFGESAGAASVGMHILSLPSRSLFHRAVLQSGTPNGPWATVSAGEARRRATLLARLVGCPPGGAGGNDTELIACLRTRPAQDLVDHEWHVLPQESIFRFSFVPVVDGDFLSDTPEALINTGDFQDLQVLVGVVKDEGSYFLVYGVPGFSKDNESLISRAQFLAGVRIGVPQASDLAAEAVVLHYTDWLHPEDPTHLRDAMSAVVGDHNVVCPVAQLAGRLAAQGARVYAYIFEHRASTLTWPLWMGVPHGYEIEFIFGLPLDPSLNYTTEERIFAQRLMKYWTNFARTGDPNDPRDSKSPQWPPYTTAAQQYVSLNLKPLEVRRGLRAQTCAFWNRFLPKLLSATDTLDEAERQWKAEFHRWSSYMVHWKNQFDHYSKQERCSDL", "assay": "AChE activity in brain extracts of scopolamine-induced ICR mice", "format": "in vivo", "settings": "PIC 50 mg/kg, donepezil 5 mg/kg oral; vs control p < 0.05", "quoted_text": "The AChE activities in the mouse brain tissue extract were assayed following the method in Section 2.3, with some modifications. The protein content of the whole brain extracts from the mice was quantified using the BCA protein kit, with bovine serum albumin as the standard protein."}, "[4]": {"settings": "co-administration of PIC and RSV, each at 180 μmol/kg"}},
  "note": "“Also recorded” adds a separate entry of the source. Read-outs that look alike come from different tables or passages of the source.",
  "data": [
    {"smiles": "Oc1cc(O)cc(C=Cc2ccc(O)c(O)c2)c1", "note": "[PIC, 3,5,3′,4′-tetrahydroxystilbene]", "values": [
      {"measurement": "viability at 10 µM", "setting": "[1]", "result": 80, "unit": "%"},
      {"measurement": "stimulation of neurite outgrowths", "setting": "SH-SY5Y cells", "result": "not PIC nor GNT; also recorded: not PIC and GNT"},
      {"measurement": "IC50", "setting": "recombinant human AChE", "result": 282, "unit": "µM"},
      {"measurement": "AChE inhibitory capacity, fold higher than that of RSV", "setting": "recombinant human AChE; vs RSV", "result": 1.23, "unit": "fold"},
      {"measurement": "AUC0–8h of intact PIC/AUC0–8h of total PIC metabolites", "setting": "[2]; PIC 90 μmol/kg", "result": 18.6, "unit": "%"},
      {"measurement": "AUC0–8h of intact PIC/AUC0–8h of total PIC metabolites", "setting": "[2]; PIC 180 μmol/kg", "result": 23.9, "unit": "%"},
      {"measurement": "AUC0–8h of intact PIC/AUC0–8h of total PIC metabolites", "setting": "[2]; PIC 360 μmol/kg", "result": 25.1, "unit": "%"},
      {"measurement": "AUC0–8h in plasma, intact compound", "setting": "[2]; [4]", "result": 8.6, "unit": "µmol·h/L"},
      {"measurement": "AUC0–8h of intact PIC/AUC0–8h of total PIC metabolites", "setting": "[2]; [4]", "result": 16.3, "unit": "%"},
      {"measurement": "AUC0–8h in plasma, intact compound", "setting": "[2]; intragastric, 90 μmol/kg", "result": 4.3, "unit": "µmol·h/L"},
      {"measurement": "AUC0–8h in plasma, intact compound", "setting": "[2]; intragastric, 180 μmol/kg", "result": 12.3, "unit": "µmol·h/L"},
      {"measurement": "AUC0–8h in plasma, intact compound", "setting": "[2]; intragastric, 360 μmol/kg", "result": 20.6, "unit": "µmol·h/L"},
      {"measurement": "AChE activity in the brain extracts", "setting": "[3]", "result": "reductions in AChE activities"}
    ]}
  ]
}
